As usually defined, the IC50 is the concentration that gives 50% inhibition.

Eight compounds from US10508109B2 (priority 2015, dated 2019) can be followed below.

SMILES strings stand for the structures. Like-named read-outs stand apart in the source and are kept apart here.

In one experiment the test system is A549. Kind of experiment: Cell-based assay, anti-proliferative activity (Cell Counting Kit-8, 72 hours). The settings on record: Homo sapiens, read-out: IC50 (μM) A549. The method in brief:
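Growth read-out after inhibitor treatment of plated cells; potency expressed as IC50.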
A general note: Tetrazolium assays rely on reduction of a dye to a coloured formazan, in cell work by metabolically active cells.

The next experiment concerns the target SUV39H2 (Homo sapiens (Human), UniProt Q9H5I1). The conditions noted are these: read-out: IC50 (μM) Suv 39H2 assay; enzyme assay.
The test system of the next experiment is PC14. Kind of experiment: Cell-based assay, anti-proliferative activity (Cell Counting Kit-8, 72 hours). The conditions noted are these: Homo sapiens, read-out: IC50 (μM) PC14. The method, boiled down: (§1)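 Seed cells in 96-well plates; add serially diluted inhibitor (1.5625 to 100 micro-M plus vehicle); incubate 72 hours; quantify viable growth by CCK-8 and calculate IC50.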

The subject of a further experiment is HFL1. The description is as above. The conditions noted are these: Homo sapiens, read-out: IC50 (μM) HFL1. The method in brief: as §1
The subject of a further experiment is CCD-18Co. Described as above. The conditions noted are these: Homo sapiens, read-out: IC50 (μM) CCD-18Co. The method, boiled down: as §1
Another experiment has as its system HCT-116. The description is as above. The conditions noted are these: Homo sapiens, read-out: IC50 (μM) HCT-116. The method in brief: as §1
Setting [1] is: A549 cells, 72 hours, Cell Counting Kit-8.
Where [2] appears, read: PC-14, PC14 cells, 72 hours, Cell Counting Kit-8.
[3] abbreviates: HFL1 cells, 72 hours, Cell Counting Kit-8.
Setting [4] is: CCD-18Co cells, 72 hours, Cell Counting Kit-8.
The mark [5] stands for this setting: HCT-116 cells, 72 hours, Cell Counting Kit-8.
The mark [6] stands for this setting: A549 cells, Cell Counting Kit-8, 72 hours.
Where [7] appears, read: PC-14, PC14 cells, Cell Counting Kit-8, 72 hours.
Where [8] appears, read: HFL1 cells, Cell Counting Kit-8, 72 hours.
Setting [9] is: CCD-18Co cells, Cell Counting Kit-8, 72 hours.
Where [10] appears, read: HCT-116 cells, Cell Counting Kit-8, 72 hours.

SUV39H2, sequence (Q9H5I1 whole entry): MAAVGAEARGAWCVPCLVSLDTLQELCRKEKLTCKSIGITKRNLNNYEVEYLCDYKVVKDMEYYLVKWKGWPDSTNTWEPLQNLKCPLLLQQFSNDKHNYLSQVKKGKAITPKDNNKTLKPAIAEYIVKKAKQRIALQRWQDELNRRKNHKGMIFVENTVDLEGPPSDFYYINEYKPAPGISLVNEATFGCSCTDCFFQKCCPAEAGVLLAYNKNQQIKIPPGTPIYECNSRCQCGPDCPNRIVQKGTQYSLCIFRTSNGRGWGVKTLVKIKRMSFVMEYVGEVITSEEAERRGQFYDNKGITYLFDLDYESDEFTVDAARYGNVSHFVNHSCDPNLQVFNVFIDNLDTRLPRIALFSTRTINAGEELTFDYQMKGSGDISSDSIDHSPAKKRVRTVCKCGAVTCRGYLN

Regarding `COc1cc(OC)c(-c2cn3cc(NCCN)c(N4CCN(S(=O)(=O)C5CC5)CC4)nc3n2)cc1Cl` [Example 222, N^1-(2-(5-chloro-2,4-dimethoxyphenyl)-7-(4-(cyclopropylsulfonyl)-piperazin-1-yl)imidazo[1,2-a]pyrimidin-6-yl)ethane-1,2-diamine], the 50% inhibitory concentration (IC50) with A549 (setting [1]) came out at 10 µM; at SUV39H2 it was 0.00597 µM; in the experiment with PC14 (setting [2]), 10 µM; in the experiment with HFL1 (setting [3]), 10 µM; with CCD-18Co (setting [4]), 10 µM; in the experiment on HCT-116 (setting [5]) it was 10 µM.
With `COC(=O)N1CCN(c2ccn3cc(-c4cc(Cl)c(OC)cc4OC)nc3n2)CC1` [Example 159, methyl 4-(2-(5-chloro-2,4-dimethoxyphenyl)imidazo[1,2-a]pyrimidin-7-yl)piperazine-1-carboxylate], the IC50 in the experiment on A549 (setting [6]) stood at 2.7 µM; at SUV39H2, 0.0157 µM; in the experiment on PC14 (setting [7]), 4.7 µM; in the experiment with HFL1 (setting [8]), 3.4 µM; with CCD-18Co (setting [9]), 3.7 µM; with HCT-116 (setting [10]), 3.2 µM.
For the compound `COc1cc(OC)c(-c2cn3ccc(N4CCCC4)cc3n2)cc1C#N` [Example 49, 2,4-dimethoxy-5-[7-(pyrrolidin-1-yl)imidazo[1,2-a]pyridin-2-yl]benzonitrile], the IC50 with A549 (A549, 72 h) stood at 1.5 µM; at SUV39H2, 0.00371 µM; with PC14 (PC-14, 72 h), 1.3 µM; in the experiment on HFL1 (HFL1, 72 h), 0.8 µM; in the experiment on CCD-18Co (CCD-18Co, 72 h) it was 1.1 µM; in the experiment with HCT-116 (HCT-116, 72 h), 1.3 µM.
As to `COC(=O)N1CCN(c2ccn3cc(-c4cc(Cl)c(OC)cc4OC)nc3c2)CC1` [Example 99, methyl 4-[2-(5-chloro-2,4-dimethoxyphenyl)imidazo[1,2-a]pyridine-7-yl]piperazine-1-carboxylate], the concentration for half-maximal inhibition (IC50) in the experiment with A549 (setting [6]) came to 1.5 µM; on SUV39H2, 0.00606 µM; in the experiment with PC14 (setting [7]), 1.9 µM; in the experiment with HFL1 (setting [8]), 1.8 µM; in the experiment with CCD-18Co (setting [9]), 1.6 µM; with HCT-116 (setting [10]), 1.5 µM.
In the case of `COc1cc(OC)c(-c2cn3ccc(N4CCN(C(=O)OC(C)(C)C)C(C)C4)cc3n2)cc1Cl` (stereo not drawn) [Example 275, tert-butyl 4-(2-(5-chloro-2,4-dimethoxyphenyl)imidazo[1,2-a]pyridin-7-yl)-2-methylpiperazine-1-carboxylate], the IC50 is 1.3 µM in the experiment on A549 (setting [1]); 0.00333 µM on SUV39H2; 0.87 µM in the experiment with PC14 (setting [2]); 1.1 µM with HFL1 (setting [3]); 1.4 µM with CCD-18Co (setting [4]); 1.4 µM with HCT-116 (setting [5]).
Take `CCS(=O)(=O)N1CCCN(c2ccn3cc(-c4cc(Cl)c(OC)cc4OCCCN(C)C)nc3c2)CC1` [Example 215, 3-(4-chloro-2-(7-(4-(ethylsulfonyl)-1,4-diazepan-1-yl)imidazo[1,2-a]pyridin-2-yl)-5-methoxyphenoxy)-N,N-dimethylpropan-1-amine]: the IC50 in the experiment with A549 (setting [1]) was 10 µM; at SUV39H2, 0.0135 µM; in the experiment on PC14 (setting [2]), 6.5 µM; in the experiment on HFL1 (setting [3]) it was 6.4 µM; in the experiment with CCD-18Co (setting [4]), 7.4 µM; in the experiment on HCT-116 (setting [5]), 10 µM.
For the compound `COc1cc(OC)c(-c2cn3ccc(N4CCC(NS(=O)(=O)CC(C)C)CC4)cc3n2)cc1Cl` [Example 185, N-{1-[2-(5-Chloro-2,4-dimethoxyphenyl)imidazo[1,2-a]pyridin-7-yl]piperidin-4-yl}-2-methylpropane-1-sulfonamide], the 50% inhibitory concentration (IC50) in the experiment on A549 (setting [6]) is 1.6 µM; at SUV39H2, 0.0127 µM; with PC14 (setting [7]), 1.4 µM; in the experiment on HFL1 (setting [8]), 2 µM; with CCD-18Co (setting [9]) it was 1.9 µM; with HCT-116 (setting [10]), 1.1 µM.
With `COc1cc(OC)c(-c2cn3ccc(-c4ccc(C(=O)NCC5CCNCC5)cc4)cc3n2)cc1Cl` [Example 267, 4-(2-(5-chloro-2,4-dimethoxyphenyl)imidazo[1,2-a]pyridin-7-yl)-N-(piperidin-4-ylmethyl)benzamide], the IC50 in the experiment with A549 (setting [1]) is 10 µM; at SUV39H2, 0.0458 µM; in the experiment on PC14 (setting [2]) it was 10 µM; with HFL1 (setting [3]), 10 µM; with CCD-18Co (setting [4]), 10 µM; in the experiment with HCT-116 (setting [5]), 10 µM.
